According to patent US20250163057A1, “DCN-1 MODULATING COMPOUNDS AND METHODS OF USE THEREOF” (Cellarity, Inc., priority 2023, published 2025):
Read-outs that look alike come from different tables or passages of the source.

What was measured:
[1] = tested on: Cullin-3 (CUL3) neddylation; test: AlphaLISA assay for Cullin-3 (CUL3) neddylation in TF 1 cells; type: cell-based; conditions: Homo sapiens, 3 hours treatment
How it was run: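 TF 1 cells in unsupplemented IMDM treated with compound concentrations for 3 h, then lysed. CUL3 neddylation detected by AlphaLISA (biotinylated anti-NEDD8, anti-CUL3 acceptor beads overnight, streptavidin donor beads 1 h); normalized to vehicle (0%) and 1 μM DI-1548 (100%), IC50 from Hill fits.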

[2] = target: DCN1 (DCUND1) protein PONY domain (Homo sapiens (Human), UniProt Q96GG9); test: TR-FRET assay, DCN1 binding with FAM-labeled probe
Chain of DCN1 (DCUND1) protein PONY domain (Q96GG9 60-248): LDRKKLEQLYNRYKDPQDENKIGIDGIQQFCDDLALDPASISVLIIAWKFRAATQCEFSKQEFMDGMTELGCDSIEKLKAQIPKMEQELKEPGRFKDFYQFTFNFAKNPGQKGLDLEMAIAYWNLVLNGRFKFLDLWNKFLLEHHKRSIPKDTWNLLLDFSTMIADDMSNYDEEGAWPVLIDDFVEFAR
How it was run: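 TR-FRET ratio (Tb-DCN1 to FAM-probe) read at 1, 5 and 24 hrs after compound addition. Protein: recombinant PONY domain from E. coli, biotinylated and coupled to streptavidin terbium. Either 5 nM DCN1 with 20 nM FAM-probe, or 0.31 nM DCN1 with 100 nM FAM-labelled plus 800 nM unlabelled probe.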

[3] = 24 hr after treatment with compound, read-out: TR FRET IC50 24 hr
[4] = TR FRET IC50 1 hr (nM), 1 hr after treatment with compound
[5] = read-out: TR FRET IC50 1 hr, 1 hr after treatment with compound

| SMILES | IC50 ([1]; TF-1, 3 h) | IC50 [2, 3] | IC50 [2, 4] | IC50 [2, 5] | IC50 [1] |
| --- | --- | --- | --- | --- | --- |
| CCCn1nc(C(=O)N2CCC[C@H]2C#N)c2c1N(CC)C(=O)[C@@H](NC(=O)c1cccc(C(F)(F)F)c1)[C@H]2C1CC1 [Compound I-467] | 100 to 1000 nM | ≤ 200 nM | 1000 to 3000 nM | – | – |
| CCN1C(=O)[C@@H](NC(=O)c2cccc(C(F)(F)F)c2)[C@@H](C2CCCC2)c2c(C(=O)N3CCC[C@H]3C#N)nn(C3CCOCC3)c21 [Compound I-469] | ≤ 100 nM | ≤ 200 nM | 1000 to 3000 nM | – | – |
| CCN1C(=O)[C@@H](NC(=O)c2cccc(C(F)(F)F)c2)[C@@H](c2ccc(F)cc2)c2c(C(=O)N(C)[C@H](C#N)CCN(C)C3COC3)nn(C3CCOCC3)c21 [Compound I-470] | ≤ 100 nM | ≤ 200 nM | – | ≤ 200 nM | – |
| COCCN1C(=O)[C@@H](NC(=O)c2cccc(C(F)(F)F)c2)[C@@H](C2CC2)c2c(C(=O)N3[C@H](C#N)C[C@H]4C[C@H]43)nn(C3CCOCC3)c21 [Compound I-474] | 100 to 1000 nM | 200 to 1000 nM | 1000 to 3000 nM | – | – |
| CCN1C(=O)[C@@H](NC(=O)CCc2ccccc2)[C@@H](C2CC2)c2c(C(=O)N3[C@H](C#N)C[C@H]4C[C@H]43)nn(C3CCOCC3)c21 [Compound I-476] | > 1000 nM | 1000 to 3000 nM | 1000 to 3000 nM | – | – |
| CCN1C(=O)[C@@H](NC(=O)c2cccc(C(F)(F)F)c2)[C@@H](C2CCCC2)c2c(C(=O)N(CC#N)C3CC3)nn(C3CCOCC3)c21 [Compound I-478] | 100 to 1000 nM | ≤ 200 nM | 1000 to 3000 nM | – | – |
| CCCn1nc(C(=O)N2CCC[C@H]2C#N)c2c1N(CC)C(=O)[C@H](NC(=O)c1cccc(C(F)(F)F)c1)[C@@H]2c1ccc(F)cc1 [Compound I-479] | > 1000 nM | 1000 to 3000 nM | 1000 to 3000 nM | – | – |
| CCN1C(=O)[C@H](NC(=O)c2cccc(C(F)(F)F)c2)[C@H](c2ccc(F)cc2)c2c(C(=O)N3CCC[C@H]3C#N)nn(-c3cccc(OCCCN(C)C4COC4)c3)c21 [Compound I-480, N-((4R,5R)-3-((S)-2-cyanopyrrolidine-1-carbonyl)-7-ethyl-4-(4-fluorophenyl)-1-(3-(3-(methyl(oxetan-3-yl)amino)propoxy)phenyl)-6-oxo-4,5,6,7-tetrahydro-1H-pyrazolo[3,4-b]pyridin-5-yl)-3-(trifluoromethyl)benzamide] | > 1000 nM | 1000 to 3000 nM | 1000 to 3000 nM | – | – |
| CCN1C(=O)[C@@H](NC(=O)c2csc(C)c2)[C@@H](C2CC2)c2c(C(=O)N3[C@H](C#N)C[C@H]4C[C@H]43)nn(C3CCOCC3)c21 [Compound I-481] | – | ≤ 200 nM | – | ≤ 200 nM | ≤ 100 nM |
| CCN1C(=O)[C@@H](NC(=O)c2ccc3scnc3c2)[C@@H](C2CC2)c2c(C(=O)N3[C@H](C#N)C[C@H]4C[C@H]43)nn(C3CCOCC3)c21 [Compound I-483] | > 1000 nM | 200 to 1000 nM | 1000 to 3000 nM | – | – |
| CCN1C(=O)[C@@H](NC(=O)c2cccc(C(F)(F)F)c2)[C@@H](c2ccc(F)cc2)c2c([C@@H](CO)NC#N)nn(-c3ccccc3)c21 [Compound I-487] | 100 to 1000 nM | ≤ 200 nM | 200 to 1000 nM | – | – |
| CCN1C(=O)[C@@H](NC(=O)c2cccc(C(F)(F)F)c2)[C@@H](c2ccc(F)cc2)c2c([C@H](CCCO)NC#N)nn(-c3ccccc3)c21 [Compound I-489] | ≤ 100 nM | ≤ 200 nM | 200 to 1000 nM | – | – |
| CCN1C(=O)[C@@H](NC(=O)c2cccc(C(F)(F)F)c2)[C@@H](c2ccc(F)cc2)c2c(CNC/C=C/C(=O)N(C)C)nn(-c3ccccc3)c21 [Compound I-490] | 100 to 1000 nM | ≤ 200 nM | – | ≤ 200 nM | – |
| CCN1C(=O)[C@@H](NC(=O)c2cccc(C(F)(F)F)c2)[C@@H](C2CC2)c2c(C(=O)N(C)C(C)C#N)nn(C3CC3)c21 (stereo partly drawn) [Compound I-492] | ≤ 100 nM | 200 to 1000 nM | 200 to 1000 nM | – | – |
| CCN1C(=O)[C@H](NC(=O)c2cccc(C(F)(F)F)c2)[C@H](c2ccc(C)cc2)c2c(C(=O)N(C)CC#N)nn(C3CC3)c21 [Compound I-494] | > 1000 nM | 1000 to 3000 nM | 1000 to 3000 nM | – | – |
| CCN1C(=O)[C@@H](NC(=O)c2nccc(C(F)(F)F)n2)[C@H](c2ccc(F)cc2)c2c(CNC(=O)/C=C/C(=O)N3CCCC3)nn(-c3ccccc3)c21 [Compound I-495] | > 1000 nM | 200 to 1000 nM | 200 to 1000 nM | – | – |
| CCN1C(=O)[C@@H](NC(=O)c2cccc(C(F)(F)F)c2)[C@@H](c2ccc(F)cc2)c2c(CN(C#N)CCCN3CCOCC3)nn(-c3ccccc3)c21 [Compound I-496] | ≤ 100 nM | ≤ 200 nM | – | ≤ 200 nM | – |

| SMILES | IC50 ([1]; TF-1, 3 h) | IC50 [2, 3] | IC50 [2, 4] | IC50 [2, 5] | IC50 [1] |
| --- | --- | --- | --- | --- | --- |
| CCN1C(=O)[C@@H](NC(=O)c2cccc(C(F)(F)F)c2)[C@@H](c2ccc(F)cc2)c2c([C@@H](CCC(O)CO)NC#N)nn(-c3ccccc3)c21 (stereo partly drawn) [Compound I-497] | ≤ 100 nM | ≤ 200 nM | – | ≤ 200 nM | – |
| C[C@@H](NC#N)c1nn(-c2ccccc2)c2c1[C@@H](c1ccc(F)cc1)[C@@H](NC(=O)c1cccc(C(F)(F)F)c1)C(=O)N2CCO [Compound I-498] | > 1000 nM | 1000 to 3000 nM | 1000 to 3000 nM | – | – |
| CCN1C(=O)[C@@H](NC(=O)c2cccc(C(F)(F)F)c2)[C@@H](c2ccc(F)cc2)c2c([C@@H](C)NC(N)=O)nn(-c3ccccc3)c21 [Compound I-499, N-((4S,5S)-7-ethyl-4-(4-fluorophenyl)-6-oxo-1-phenyl-3-((R)-1-ureidoethyl)-4,5,6,7-tetrahydro-1H-pyrazolo[3,4-b]pyridin-5-yl)-3-(trifluoromethyl)benzamide] | 100 to 1000 nM | 1000 to 3000 nM | 1000 to 3000 nM | – | – |
| CCN1C(=O)[C@@H](NC(=O)c2cccc(C(F)(F)F)c2)[C@@H](C2CC2)c2c(C(=O)N3C[C@@H](NC)C[C@H]3C#N)nn(C3CCOCC3)c21 [Compound I-503, N-((4S,5S)-3-((2S,4S)-2-cyano-4-(methylamino)pyrrolidine-1-carbonyl)-4-cyclopropyl-7-ethyl-6-oxo-1-(tetrahydro-2H-pyran-4-yl)-4,5,6,7-tetrahydro-1H-pyrazolo[3,4-b]pyridin-5-yl)-3-(trifluoromethyl)benzamide] | > 1000 nM | 200 to 1000 nM | 1000 to 3000 nM | – | – |
| CCN1C(=O)[C@@H](NC(=O)c2cnc(C)cc2Cl)[C@@H](C2CC2)c2c(C(=O)N3[C@H](C#N)C[C@H]4C[C@H]43)nn(C3CCOCC3)c21 [Compound I-506] | > 1000 nM | 1000 to 3000 nM | 1000 to 3000 nM | – | – |
| CCN1C(=O)[C@@H](NC(=O)c2cccc(C(F)(F)F)c2F)[C@@H](C2CC2)c2c(C(=O)N3[C@H](C#N)C[C@H]4C[C@H]43)nn(C3CCOCC3)c21 [Compound I-514] | – | ≤ 200 nM | – | ≤ 200 nM | ≤ 100 nM |
| CCN1C(=O)[C@@H](NC(=O)c2cccc(C(F)(F)F)c2)[C@@H](C2CCC2)c2c(C(=O)N(CC#N)C3CC3)nn(C3CCOCC3)c21 [Compound I-515] | 100 to 1000 nM | ≤ 200 nM | 200 to 1000 nM | – | – |
| CCN1C(=O)[C@@](C)(NC(=O)c2cccc(C(F)(F)F)c2)[C@@H](C2CC2)c2c(C(=O)N3[C@H](C#N)C[C@H]4C[C@H]43)nn(C3CCOCC3)c21 [Compound I-516, N-((4S,5S)-3-((1R,3S,5R)-3-cyano-2-azabicyclo[3.1.0]hexane-2-carbonyl)-4-cyclopropyl-7-ethyl-5-methyl-6-oxo-1-(tetrahydro-2H-pyran-4-yl)-4,5,6,7-tetrahydro-1H-pyrazolo[3,4-b]pyridin-5-yl)-3-(trifluoromethyl)benzamide] | ≤ 100 nM | ≤ 200 nM | – | ≤ 200 nM | – |
| CCN1C(=O)[C@@H](NC(=O)c2cccc(C(F)(F)F)c2)[C@@H](C2CC2)c2c(C(=O)N3CS(=O)(=O)C[C@H]3C#N)nn(-c3ccccc3)c21 [Compound I-519] | ≤ 100 nM | ≤ 200 nM | – | ≤ 200 nM | – |
| CCN1C(=O)[C@@H](NC(=O)c2cccc(C(F)(F)F)c2)[C@@H](C2CC2)c2c(C(=O)N3CS(=O)(=O)C[C@@H]3C#N)nn(-c3ccccc3)c21 [Compound I-521] | ≤ 100 nM | ≤ 200 nM | 1000 to 3000 nM | – | – |
| CCN1C(=O)[C@H](NC(=O)c2cccc(C(F)(F)F)c2)[C@@H](c2ccc(F)cc2)c2c(COCC#N)nn(-c3ccccc3)c21 [Compound I-522] | > 1000 nM | 1000 to 3000 nM | 1000 to 3000 nM | – | – |
| CCN1C(=O)[C@@H](NC(=O)c2cccc(C(F)(F)F)c2)[C@@H](C2CCCC2)c2c(C(=O)N(C)[C@H](C)C#N)nn(C3CCOCC3)c21 [Compound I-524] | ≤ 100 nM | ≤ 200 nM | 200 to 1000 nM | – | – |
| CCN1C(=O)[C@H](NC(=O)c2cccc(C(F)(F)F)c2)[C@H](c2ccc(F)cn2)c2c([C@@H](C)NC#N)nn(-c3ccccc3)c21 [Compound I-525] | > 1000 nM | 1000 to 3000 nM | 1000 to 3000 nM | – | – |
| CCN1C(=O)[C@@H](NC(=O)c2ccc3ccoc3c2)[C@@H](C2CC2)c2c(C(=O)N3[C@H](C#N)C[C@H]4C[C@H]43)nn(C3CCOCC3)c21 [Compound I-526] | – | ≤ 200 nM | – | ≤ 200 nM | ≤ 100 nM |
| CCN1C(=O)[C@@H](NC(=O)c2cccc3cccnc23)[C@@H](C2CC2)c2c(C(=O)N3[C@H](C#N)C[C@H]4C[C@H]43)nn(C3CCOCC3)c21 [Compound I-527] | 100 to 1000 nM | ≤ 200 nM | 200 to 1000 nM | – | – |
| CCN1C(=O)[C@@H](NC(=O)c2cccc(C(F)(F)F)c2)[C@@H](c2ccc(F)cc2)c2c([C@H](C)NC#N)nn(-c3ccccc3)c21 [Compound I-530] | ≤ 100 nM | ≤ 200 nM | 200 to 1000 nM | – | – |
